Earlier results as cited in patent publication US20230149268A1, “MULTI-PHASE COSMETIC COMPOSITION COMPRISING AT LEAST TWO IMMISCIBLE OILY PHASES” (CHANEL PARFUMS BEAUTE, priority 2020, published 2023).

Details: Table 1, known values, fatty acids

| δd | δh | δp | Structure (SMILES) |
| --- | --- | --- | --- |
| 16.1 | 3.9 | 2.4 | CCCCCCCCCCCCCCCCCCCCCCCC(=O)O [Lignoceric acid C24:0, Lignoceric acid] |
| 16.7 | 6.1 | 3.1 | CCCCC/C=C\C/C=C\CCCCCCCC(=O)O [Linoleic acid C18:2, Linoleic acid] |
| 16.2 | 5.4 | 2.8 | CCCCCCCCCCCCCCCCC(=O)O [Margaric acid C17:0, Margaric acid] |
| 16.3 | 6.6 | 3.3 | CCCCCCCCCCCCCC(=O)O [Myristic acid C14:0, Myristic acid] |
| 16.4 | 5.5 | 3 | CCCCCCCC/C=C\CCCCCCCC(=O)O [Oleic acid C18:1, Oleic acid] |
| 16.2 | 5.8 | 3.3 | CCCCCCCCCCCCCCCC(=O)O [Palmitic acid C16:0, Palmitic acid] |
| 16.5 | 6.3 | 3.4 | CCCCCC/C=C\CCCCCCCC(=O)O [Palmitoleic acid C16:1, Palmitoleic acid] |
| 16.5 | 8.2 | 4.4 | CCCCCC[C@@H](O)C/C=C\CCCCCCCC(=O)O [Ricinoleic acid] |
| 16.2 | 5.2 | 2.8 | CCCCCCCCCCCCCCCCCC(=O)O [Stearic acid C18:0, Stearic acid] |

Second part, the compound before the results:

| Structure (SMILES) | δd | δh | δp |
| --- | --- | --- | --- |
| CCCCCCCCCCCCCCCCCCCC(=O)O [Arachidic acid C20:0, Arachidic acid] | 16.1 | 4.7 | 2.7 |
| CCCCCCCCCCCCCCCCCCCCCC(=O)O [Behenic acid C22:0, Behenic acid] | 16.2 | 4.3 | 2.3 |
| CCCCCCCCCC(=O)O [Capric acid C10:0, Capric acid] | 16.3 | 8.6 | 4.2 |
| CCCCCCCC(=O)O [Caprylic acid C8:0, Caprylic acid] | 16.3 | 10.1 | 5.2 |
| CCCCCCCC/C=C\CCCCCCCCCCCC(=O)O [Erucic acid C22:1, Erucic acid] | 16.3 | 4.5 | 2.6 |
| CCCCCCCCCC/C=C\CCCCCCCC(=O)O [Gadoleic acid C20:1, Gadoleic acid] | 16.4 | 5.1 | 2.9 |
| CCCCCCCCCCCC(=O)O [Lauric acid C12:0, Lauric acid] | 16.3 | 7.5 | 4 |
